Results published in US20230382940A1, “ANTIVIRAL COMPOUNDS AND METHODS OF MAKING AND USING THE SAME” (Gilead Sciences, Inc., priority 2022, published 2023).

Assays:
[1] = system: Respiratory syncytial virus recombinant with luciferase (RSV-Luc5); test: NHBE RSV-Luc5 384-well assay (EC50 RSVFLUC NHBE-384 v2), Example W; assay type: cell-based; details: human respiratory syncytial virus, 72 h, read-out: EC50 RSV FLUC NHBE 384 V2 (per Ex. W)
Description: Example W: NHBE RSV-Luc5 384-Well Assay (EC50 RSVFLUC NHBE-384 v2)
Normal Human Bronchial Epithelial (NHBE) cells were purchased from Lonza (Walkersville, MD Cat #CC2540) and maintained in BEGM Bronchial Epithelial Cell Growth Medium BulletKit (Lonza CC-3170).
Cells were thawed, expanded, and were used for experiments at passage 2. Respiratory syncytial virus recombinant with luciferase (RSV-Luc5) (≥1×10^7 Infectious Units/mL (IU/mL) determined by TCID50) was purchased from Microbiologics (Saint Cloud, MN). Viral replication was determined in NHBE cells in the following manner.
(§1) Compounds are prepared in 100% DMSO in 384-well polypropylene plates (Greiner, Monroe, NC, Cat #784201) with 8 compounds per plate in grouped replicates of 4 at 10 serially diluted concentrations (1:3). The serially diluted compounds were transferred to low dead volume Echo plates (Labcyte, Sunnyvale, CA, Cat #LP-0200).
The test compounds were spotted to 384-well assay plates (Greiner, Monroe, NC, Cat #781091) at 200 nL per well using an Echo acoustic dispenser (Labcyte, Sunnyvale, CA). NHBE cells were harvested and suspended in BEGM Bronchial Epithelial Cell Growth Medium BulletKit and seeded to the pre-spotted assay plates at 5,000 cells per well in 30 μL. RSV-Luc5 virus was diluted in BEGM Bronchial Epithelial Cell Growth Medium BulletKit at 500,000 Infectious Units (IU) per mL and 10 μL per well was added to the assay plates containing cells and compounds, for an MOI of 1. The assay plates were incubated for 3 days at 37° C. and 5% CO2. At the end of incubation, One-Glo reagent (Promega, Madison, WI, Cat #E6120) was prepared. The assay plates and One-Glo reagent were equilibrated to room temperature for at least 15 minutes. 40 μL per well of One-Glo reagent was added and the plates were incubated at room temperature for 15 minutes before reading the luminescence signal on an EnVision multimode plate reader (Perkin Elmer, Waltham, MA). Remdesivir was used as positive control and DMSO was used as negative control. Values were normalized to the positive and negative controls (as 0% and 100% replication, respectively) and data was fitted using non-linear regression analysis by Gilead's dose response tool. The EC50 value for each compound was defined as the concentration reducing the viral replication by 50%.

[2] = system: Respiratory syncytial virus recombinant with luciferase (RSV-Luc5); test: HEp-2 RSV-Luc5 384-well assay (EC50 RSVFLUC Hep2-384 v2), Example V; assay type: cell-based; details: human respiratory syncytial virus, HEp-2, 72 h, read-out: EC50 RSV FLuc Hep-2 384 V2 (per Ex. V)
Description: Example V: HEp-2 RSV-Luc5 384-Well Assay (EC50 RSVFLUC Hep2-384 v2)
HEp-2 cell line was purchased from ATCC (Manassas, VA Cat #CCL-23) and maintained in Dulbecco's […] (DMEM) (Corning, New York, NY, Cat #15-018CM) supplemented with 10% fetal bovine serum (FBS) (Hyclone, Logan, UT, Cat #SH30071-03) and 1× Penicillin-Streptomycin-L-Glutamine (Corning, New York, NY, Cat #30-009-C1). Cells were passaged 2 times per week to maintain sub-confluent densities and were used for experiments at passage 5-20. Respiratory syncytial virus recombinant with luciferase (RSV-Luc5) (≥1×107 TCID50/ml) was purchased from Microbiologics (Saint Cloud, MN). Viral replication was determined in HEp-2 cells in the following manner.
as §1
The test compounds were spotted to 384-well assay plates (Greiner, Monroe, NC, Cat #781091) at 200 nL per well. HEp-2 cells were harvested and suspended in DMEM (supplemented with 10% FBS and 1× Penicillin-Streptomycin-L-Glutamine) and seeded to the pre-spotted assay plates at 4,000 cells per well in 30 μL. RSV-Luc5 viruses were diluted in DMEM (supplemented with 10% FBS and 1× Penicillin-Streptomycin-L-(Glutamine) at 200,000 Infectious Units (IU) per mL and 10 μL per well was added to the assay plates containing cells and compounds, for an MOI=0.5. The assay plates were incubated for 3 days at 37° C. and 5% CO2. At the end of incubation, One-Glo reagent (Promega, Madison, WI, Cat #E6120) was prepared. The assay plates and One-Glo reagent were equilibrated to room temperature for at least 15 minutes. 40 μL per well of One-Glo reagent was added and the plates were incubated at room temp for 15 minutes before reading the luminescence signal on an EnVision multimode plate reader (Perkin Elmer, Waltham, MA). Remdesivir was used as positive control and DMSO was used as negative control. Values were normalized to the positive and negative controls (as 0% and 100% replication, respectively) and data was fitted using non-linear regression analysis by Gilead's dose response tool. The EC50 value for each compound was then determined as the concentration reducing the viral replication by 50%.

N#C[C@]1(COC(=O)OC2CCCC2)O[C@@H](c2ccc3c(N)ncnn23)[C@H](O)[C@@H]1O [Compound 1, ((2R,3S,4R,5S)-5-(4-aminopyrrolo[2,1-f][1,2,4]triazin-7-yl)-2-cyano-3,4-dihydroxytetrahydrofuran-2-yl)methyl cyclopentyl carbonate]
EC50 [1]: 12.8 µM
EC50 [2]: 21.2 µM

CC(C)(C)COC(=O)OC[C@@]1(C#N)O[C@@H](c2ccc3c(N)ncnn23)[C@H](O)[C@@H]1O [Compound 2, ((2R,3S,4R,5S)-5-(4-aminopyrrolo[2,1-f][1,2,4]triazin-7-yl)-2-cyano-3,4-dihydroxytetrahydrofuran-2-yl)methyl neopentyl carbonate]
EC50 [1]: 11.4 µM
EC50 [2]: 9.49 µM

CC[C@H](C)OC(=O)OC[C@@]1(C#N)O[C@@H](c2ccc3c(N)ncnn23)[C@H](O)[C@@H]1O [Compound 4, ((2R,3S,4R,5S)-5-(4-aminopyrrolo[2,1-f][1,2,4]triazin-7-yl)-2-cyano-3,4-dihydroxytetrahydrofuran-2-yl)methyl ((S)-sec-butyl) carbonate]
EC50 [1]: 9.85 µM
EC50 [2]: 24.1 µM

N#C[C@]1(COC(=O)OCCc2ccccc2)O[C@@H](c2ccc3c(N)ncnn23)[C@H](O)[C@@H]1O [Compound 5, ((2R,3S,4R,5S)-5-(4-aminopyrrolo[2,1-f][1,2,4]triazin-7-yl)-2-cyano-3,4-dihydroxytetrahydrofuran-2-yl)methyl phenethyl carbonate]
EC50 [1]: 12.5 µM
EC50 [2]: 17.9 µM

COC(=O)OC[C@@]1(C#N)O[C@@H](c2ccc3c(N)ncnn23)[C@H](O)[C@@H]1O [Compound 6, ((2R,3S,4R,5S)-5-(4-aminopyrrolo[2,1-f][1,2,4]triazin-7-yl)-2-cyano-3,4-dihydroxytetrahydrofuran-2-yl)methyl methyl carbonate]
EC50 [1]: 36.6 µM
EC50 [2]: 17.8 µM

CC(C)CCOC(=O)OC[C@@]1(C#N)O[C@@H](c2ccc3c(N)ncnn23)[C@H](O)[C@@H]1O [Compound 7, ((2R,3S,4R,5S)-5-(4-aminopyrrolo[2,1-f][1,2,4]triazin-7-yl)-2-cyano-3,4-dihydroxytetrahydrofuran-2-yl)methyl isopentyl carbonate]
EC50 [1]: 13.9 µM
EC50 [2]: 16.8 µM

CC(C)COC(=O)OC[C@@]1(C#N)O[C@@H](c2ccc3c(N)ncnn23)[C@H](O)[C@@H]1O [Compound 8, ((2R,3S,4R,5S)-5-(4-aminopyrrolo[2,1-f][1,2,4]triazin-7-yl)-2-cyano-3,4-dihydroxytetrahydrofuran-2-yl)methyl isobutyl carbonate]
EC50 [1]: 12.5 µM
EC50 [2]: 11.5 µM

CCCOC(=O)OC[C@@]1(C#N)O[C@@H](c2ccc3c(N)ncnn23)[C@H](O)[C@@H]1O [Compound 9, ((2R,3S,4R,5S)-5-(4-aminopyrrolo[2,1-f][1,2,4]triazin-7-yl)-2-cyano-3,4-dihydroxytetrahydrofuran-2-yl)methyl propyl carbonate]
EC50 [1]: 15.9 µM
EC50 [2]: 13.3 µM

CC[C@@H](C)OC(=O)OC[C@@]1(C#N)O[C@@H](c2ccc3c(N)ncnn23)[C@H](O)[C@@H]1O [Compound 10, ((2R,3S,4R,5S)-5-(4-aminopyrrolo[2,1-f][1,2,4]triazin-7-yl)-2-cyano-3,4-dihydroxytetrahydrofuran-2-yl)methyl ((R)-sec-butyl) carbonate]
EC50 [1]: 11.4 µM
EC50 [2]: 24.7 µM

CC(C)OC(=O)OC[C@@]1(C#N)O[C@@H](c2ccc3c(N)ncnn23)[C@H](O)[C@@H]1O [Compound 11, ((2R,3S,4R,5S)-5-(4-aminopyrrolo[2,1-f][1,2,4]triazin-7-yl)-2-cyano-3,4-dihydroxytetrahydrofuran-2-yl)methyl isopropyl carbonate]
EC50 [1]: 12 µM
EC50 [2]: 31.2 µM

N#C[C@]1(COC(=O)OC2CCOCC2)O[C@@H](c2ccc3c(N)ncnn23)[C@H](O)[C@@H]1O [Compound 12, ((2R,3S,4R,5S)-5-(4-aminopyrrolo[2,1-f][1,2,4]triazin-7-yl)-2-cyano-3,4-dihydroxytetrahydrofuran-2-yl)methyl (tetrahydro-2H-pyran-4-yl) carbonate]
EC50 [1]: 8.88 µM
EC50 [2]: > 50 µM

CC(C)(C)OC(=O)OC[C@@]1(C#N)O[C@@H](c2ccc3c(N)ncnn23)[C@H](O)[C@@H]1O [Compound 13, ((2R,3S,4R,5S)-5-(4-aminopyrrolo[2,1-f][1,2,4]triazin-7-yl)-2-cyano-3,4-dihydroxytetrahydrofuran-2-yl)methyl tert-butyl carbonate]
EC50 [1]: 10.8 µM
EC50 [2]: 12.1 µM

CCC(CC)OC(=O)OC[C@@]1(C#N)O[C@@H](c2ccc3c(N)ncnn23)[C@H](O)[C@@H]1O [Compound 14, ((2R,3S,4R,5S)-5-(4-aminopyrrolo[2,1-f][1,2,4]triazin-7-yl)-2-cyano-3,4-dihydroxytetrahydrofuran-2-yl)methyl pentan-3-yl carbonate]
EC50 [1]: 14.9 µM
EC50 [2]: 31.6 µM

CC(C)COC(=O)OC[C@@]1(C#N)O[C@@H](c2ccc3c(N)ncnn23)[C@@H]2OC(=O)O[C@@H]21 [Compound 15, ((3aS,4R,6S,6aS)-6-(4-aminopyrrolo[2,1-f][1,2,4]triazin-7-yl)-4-cyano-2-oxotetrahydrofuro[3,4-d][1,3]dioxol-4-yl)methyl isobutyl carbonate]
EC50 [1]: 11.4 µM
EC50 [2]: 14.4 µM

CC(C)COC(=O)Nc1ncnn2c([C@@H]3O[C@](C#N)(CO)[C@@H](O)[C@H]3O)ccc12 [Compound 16, Isobutyl (7-((2S,3R,4S,5R)-5-cyano-3,4-dihydroxy-5-(hydroxymethyl)tetrahydrofuran-2-yl)pyrrolo[2,1-f][1,2,4]triazin-4-yl)carbamate]
EC50 [1]: 50 µM
EC50 [2]: 50 µM

N#C[C@]1(COC(=O)OC2CCC2)O[C@@H](c2ccc3c(N)ncnn23)[C@H](O)[C@@H]1O [Compound 17, ((2R,3S,4R,5S)-5-(4-aminopyrrolo[2,1-f][1,2,4]triazin-7-yl)-2-cyano-3,4-dihydroxytetrahydrofuran-2-yl)methyl cyclobutyl carbonate]
EC50 [1]: 5.96 µM
EC50 [2]: 24.9 µM

CCCCCCOC(=O)OC[C@@]1(C#N)O[C@@H](c2ccc3c(N)ncnn23)[C@H](O)[C@@H]1O [Compound 19, ((2R,3S,4R,5S)-5-(4-aminopyrrolo[2,1-f][1,2,4]triazin-7-yl)-2-cyano-3,4-dihydroxytetrahydrofuran-2-yl)methyl hexyl carbonate]
EC50 [1]: 7.03 µM
EC50 [2]: 13.6 µM

CCCCCOC(=O)OC[C@@]1(C#N)O[C@@H](c2ccc3c(N)ncnn23)[C@H](O)[C@@H]1O [Compound 20, ((2R,3S,4R,5S)-5-(4-aminopyrrolo[2,1-f][1,2,4]triazin-7-yl)-2-cyano-3,4-dihydroxytetrahydrofuran-2-yl)methyl pentyl carbonate]
EC50 [1]: 7.51 µM
EC50 [2]: 13.7 µM
